# Target: T1, Calmodulin-domain protein kinase 1 (Toxoplasma gondii, UniProt Q9BJF5)
# T1 sequence (Q9BJF5 whole entry): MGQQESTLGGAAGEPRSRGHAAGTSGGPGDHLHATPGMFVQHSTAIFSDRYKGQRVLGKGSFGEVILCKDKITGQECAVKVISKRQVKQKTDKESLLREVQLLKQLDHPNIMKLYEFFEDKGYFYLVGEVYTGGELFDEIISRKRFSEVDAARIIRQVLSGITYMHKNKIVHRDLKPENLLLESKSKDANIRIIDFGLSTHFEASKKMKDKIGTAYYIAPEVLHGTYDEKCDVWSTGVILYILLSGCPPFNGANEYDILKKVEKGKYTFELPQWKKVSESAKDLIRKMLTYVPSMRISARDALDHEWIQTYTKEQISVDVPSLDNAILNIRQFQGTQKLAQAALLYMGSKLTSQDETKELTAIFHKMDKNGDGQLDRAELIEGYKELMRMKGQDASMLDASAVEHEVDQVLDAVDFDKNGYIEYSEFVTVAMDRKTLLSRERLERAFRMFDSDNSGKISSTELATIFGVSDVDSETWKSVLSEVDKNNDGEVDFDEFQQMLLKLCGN
# Assay: Luminescent Kinase Assay: Inhibition of TgCDPK1 and CpCDPK1 was determined using a luminescent kinase assay which measures ATP depletion in the presence of the Syntide 2 peptide substrate (KinaseGlo). For description of the methods and assays, see WO 2011/094628, incorporated by reference herein.
smiles,measurement,value
CC(C)(C)n1cc(C(N)=O)c(-c2ccc3c(N)n[nH]c3c2)n1,IC50,40 nM
